The source made the active and inactive calls. The calls are words filed in the database; no cut-off is given here. Where only a bound is given, the exact number is not on record here.

Drawing on ChEMBL document CHEMBL2331465, “The discovery of novel isoflavone pan peroxisome proliferator-activated receptor agonists” (Bioorg Med Chem, 2013), this text covers viability, EC50 and Activity for five compounds.

The nature of series [1]: Cytotoxicity against human HEK293 cells assessed as cell viability at 10 uM measured after 48 hrs by MTS assay relative to vehicle control. As to conditions: read-out: Activity. It counts as cell-based.
For series [2], the target named is T1, Peroxisome proliferator-activated receptor delta (Homo sapiens, UniProt Q03181).
T1 sequence (Q03181 whole entry): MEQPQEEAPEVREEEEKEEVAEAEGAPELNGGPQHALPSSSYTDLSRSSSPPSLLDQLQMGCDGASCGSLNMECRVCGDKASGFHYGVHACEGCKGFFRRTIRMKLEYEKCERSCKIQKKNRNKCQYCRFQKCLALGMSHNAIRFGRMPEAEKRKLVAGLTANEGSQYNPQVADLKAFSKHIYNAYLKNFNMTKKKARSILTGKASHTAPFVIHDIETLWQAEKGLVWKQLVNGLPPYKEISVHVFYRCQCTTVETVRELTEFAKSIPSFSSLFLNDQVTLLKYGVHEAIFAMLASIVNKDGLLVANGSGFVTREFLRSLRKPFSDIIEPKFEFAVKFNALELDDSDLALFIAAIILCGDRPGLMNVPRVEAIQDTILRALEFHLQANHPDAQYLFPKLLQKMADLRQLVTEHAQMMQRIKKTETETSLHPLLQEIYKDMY
Nature of the series: Agonist activity at human PPARdelta expressed in HEK293 cells cotransfected with PPREx4-TK-luc assessed as activation of luciferase activity measured after 48 hrs by transactivation assay. It counts as cell-based.

Series [3] concerns the target T2, Peroxisome proliferator-activated receptor alpha (Homo sapiens, UniProt Q07869).
T2 sequence (Q07869 whole entry): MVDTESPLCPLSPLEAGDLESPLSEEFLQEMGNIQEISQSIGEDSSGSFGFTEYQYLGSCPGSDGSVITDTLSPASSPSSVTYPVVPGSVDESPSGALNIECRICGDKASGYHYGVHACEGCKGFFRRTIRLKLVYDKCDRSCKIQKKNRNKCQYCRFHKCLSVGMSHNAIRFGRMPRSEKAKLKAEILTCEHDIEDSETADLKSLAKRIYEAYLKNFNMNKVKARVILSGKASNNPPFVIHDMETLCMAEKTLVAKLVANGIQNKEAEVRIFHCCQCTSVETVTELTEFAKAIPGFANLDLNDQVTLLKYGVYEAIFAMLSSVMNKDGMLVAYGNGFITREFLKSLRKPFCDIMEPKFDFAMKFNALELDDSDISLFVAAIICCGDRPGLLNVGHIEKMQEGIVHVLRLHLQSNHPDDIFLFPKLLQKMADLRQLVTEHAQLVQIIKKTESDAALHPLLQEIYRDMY
Nature of the series: Agonist activity at human PPARalpha expressed in HEK293 cells cotransfected with PPREx4-TK-luc assessed as activation of luciferase activity measured after 48 hrs by transactivation assay. It counts as cell-based.

A short description of series [4]: Cytotoxicity against human HEK293 cells assessed as cell viability at 100 uM measured after 48 hrs by MTS assay relative to vehicle control. It counts as cell-based. As to conditions: read-out: Activity.
In series [5] the target is T3, Peroxisome proliferator-activated receptor gamma (Homo sapiens, UniProt P37231).
T3 sequence (P37231 whole entry): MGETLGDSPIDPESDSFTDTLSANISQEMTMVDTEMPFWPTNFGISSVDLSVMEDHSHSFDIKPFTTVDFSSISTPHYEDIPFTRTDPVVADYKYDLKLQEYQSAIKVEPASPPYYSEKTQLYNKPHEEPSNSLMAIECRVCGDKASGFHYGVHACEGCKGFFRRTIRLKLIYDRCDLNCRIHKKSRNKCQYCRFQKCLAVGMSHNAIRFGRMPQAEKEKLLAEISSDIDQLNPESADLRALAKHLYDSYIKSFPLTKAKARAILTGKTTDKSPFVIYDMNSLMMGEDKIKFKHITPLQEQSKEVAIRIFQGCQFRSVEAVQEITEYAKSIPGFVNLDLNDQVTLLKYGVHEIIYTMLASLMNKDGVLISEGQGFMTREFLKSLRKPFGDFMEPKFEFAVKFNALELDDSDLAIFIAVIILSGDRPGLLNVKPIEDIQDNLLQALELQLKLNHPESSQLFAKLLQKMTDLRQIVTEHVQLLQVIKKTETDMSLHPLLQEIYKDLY
Nature of the series: Agonist activity at human PPARgamma expressed in HEK293 cells cotransfected with PPREx4-TK-luc assessed as activation of luciferase activity measured after 48 hrs by transactivation assay. It counts as cell-based.

Series [6] relates to Rattus norvegicus. Put plainly: Antidiabetic activity against Zucker diabetic fatty rat assessed as blood glucose level at 3 mg/kg after 30 mins (reference value: 270 mg/dL). It counts as functional.
Series [7] concerns Rattus norvegicus. Put plainly: Antimetabolic syndrome activity in Zucker […] rat assessed as inhibition of fatty liver disease in measured as liver mass at 3 mg/kg (reference value: 8.6 g). It counts as functional.
Series [8] has as its system Rattus norvegicus. Put plainly: Antimetabolic syndrome activity in Zucker diabetic fatty rat assessed as inhibition of fatty liver disease in measured as liver mass at 3 mg/kg (reference value: 23.9 g). It counts as functional.
The subject of series [9] is Rattus norvegicus. Put plainly: Antidiabetic activity against Zucker diabetic fatty rat assessed as blood glucose level at 3 mg/kg measured after 2 hrs of glucose intake by oral glucose tolerance test (reference value: 185 mg/dL). It counts as functional.
Series [10] concerns Rattus norvegicus. Put plainly: Antidiabetic activity against Zucker diabetic fatty rat assessed as blood glucose level at 3 mg/kg (reference value: 124 mg/dL). It is filed as functional.
Series [11] deals with Rattus norvegicus. Put plainly: Reduction in Zucker diabetic fatty rat body weight gain at 3 mg/kg/day measured after 6 weeks (reference value: 103 g). It counts as functional.
The test system of series [12] is Rattus norvegicus. Nature of the series: Reduction in Zucker diabetic fatty rat body weight gain at 3 mg/kg/day measured after 3 weeks. It counts as functional, organism-based.

The EC50 is the midpoint of the concentration-response curve. As for `O=c1c(-c2ccc3c(c2)OCO3)coc2cc(O)ccc12` [PSEUDOBAPTOGENIN], in series [1], the viability at 48 h, 10 µM was more than 90%. The EC50 in series [2] was determined as 22.3 µM.
For the compound `O=c1c(-c2ccc(F)cc2)coc2cc(O)ccc12`, in [1], the viability at 48 h, 10 µM was determined as 78%. In addition, the EC50 in series [2] turned out to be 24.4 µM; in [3], 23.1 µM.
As for `CC(C)(Oc1ccc(CCNC(=O)c2ccc(Cl)cc2)cc1)C(=O)O` [BEZAFIBRATE], in series [4], the viability at 48 h, 100 µM was found to be 73.7%. In series [1], the viability at 48 h, 10 µM came out at 76%. Further, in [5], the EC50 was determined as 70.4 µM.
With `COc1cccc(-c2coc3cc(O)ccc3c2=O)c1`, the Activity in the series with Rattus norvegicus [6] was 247 mg/dL; in the series on Rattus norvegicus [7], 8.3 g; in the series with Rattus norvegicus [8], 19.7 g; with Rattus norvegicus [9], 154 mg/dL; in the series on Rattus norvegicus [10] it was 113 mg/dL; in the series on Rattus norvegicus [11], 94 g. Further, the result in the series with Rattus norvegicus [12] was Active. Further, the viability at 48 h, 100 µM in series [4] came to 74%. In series [1], the viability at 48 h, 10 µM is more than 90%. The figures for the EC50 in series [2] and in series [3] were 12.4 µM and 33.1 µM, respectively.
Consider `COc1cc(OC)cc(-c2coc3cc(O)ccc3c2=O)c1`, for which, in series [1], the viability at 48 h, 10 µM was determined as 80%. The concentration giving a half-maximal response (EC50) in series [2] amounted to 17.2 µM.
